Row | SMILES | melting point [°C]
1 | CCCCOCCOc1ccc(-c2ccc3c(c2)C=C(C(=O)Nc2ccc([C@H](O)c4cccc[n+]4[O-])cc2)CCN3CC2CC2)cc1 [Compound 84, 7-[4-(2-butoxyethoxy)phenyl]-1-cyclopropylmethyl-N-[4-[(S)-hydroxy(1-oxidopyridin-2-yl)methyl]phenyl]-2,3-dihydro-1H-1-benzazepine-4-carboxamide] | 85 to 88
2 | CCCCOCCOc1ccc(-c2ccc3c(c2)C=C(C(=O)Nc2ccc([C@H](O)c4cccc[n+]4[O-])cc2)CCN3Cc2nccs2)cc1 [Compound 86, 7-[4-(2-butoxyethoxy)phenyl]-N-[4-[(S)-hydroxy(1-oxidopyridin-2-yl)methyl]phenyl]-1-(thiazol-2-ylmethyl)-2,3-dihydro-1H-1-benzazepine-4-carboxamide] | 164 to 165
3 | CCCCOCCOc1ccc(-c2ccc3c(c2)C=C(C(=O)Nc2ccc([C@H](O)c4cccc[n+]4[O-])cc2)CCN3Cc2ccnn2C)cc1 [Compound 89, 7-[4-(2-butoxyethoxy)phenyl]-N-[4-[(S)-hydroxy(1-oxidopyridin-2-yl)methyl]phenyl]-1-(1-methylpyrazol-5-ylmethyl)-2,3-dihydro-1H-1-benzazepine-4-carboxamide] | 109 to 111
4 | CCCCOCCOc1ccc(-c2ccc3c(c2)C=C(C(=O)Nc2ccc([C@H](O)c4cccc[n+]4[O-])cc2)CCN3Cc2ccccc2)cc1 [Compound 90, 1-benzyl-7-[4-(2-butoxyethoxy)phenyl]-N-[4-[(S)-hydroxy(1-oxidopyridin-2-yl)methyl]phenyl]-2,3-dihydro-1H-1-benzazepine-4-carboxamide] | 89 to 93
5 | CCCCOCCOc1ccc(-c2ccc3c(c2)C=C(C(=O)Nc2ccc([C@H](O)c4cccc[n+]4[O-])cc2)CCN3Cc2cc(C)ns2)cc1 [Compound 92, 7-[4-(2-butoxyethoxy)phenyl]-1-(3-methyl-isothiazol-5-ylmethyl)-N-[4-[(S)-hydroxy(1-oxidopyridin-2-yl)methyl]phenyl]-2,3-dihydro-1H-1-benzazepine-4-carboxamide] | 93 to 96
6 | CCCCOCCOc1ccc(-c2ccc3c(c2)C=C(C(=O)Nc2ccc([C@H](O)c4ccccn4)cc2)CCN3S(C)(=O)=O)cc1 [Compound 93, 7-[4-(2-butoxyethoxy)phenyl]-N-[4-[(S)-hydroxy(2-pyridyl)methyl]phenyl]-1-methanesulfonyl-2,3-dihydro-1H-1-benzazepine-4-carboxamide] | 158 to 160
7 | CCCCOCCOc1ccc(-c2ccc3c(c2)C=C(C(=O)Nc2ccc([C@H](O)c4cccc[n+]4[O-])cc2)CCN3S(C)(=O)=O)cc1 [Compound 94, 7-[4-(2-butoxyethoxy)phenyl]-N-[4-[(S)-hydroxy(1-oxidopyridin-2-yl)methyl]phenyl]-1-methanesulfonyl-2,3-dihydro-1H-1-benzazepine-4-carboxamide] | 118 to 120
8 | CCCCOCCOc1ccc(-c2ccc3c(c2)C=C(C(=O)Nc2ccc(C(O)c4cccc(C)[n+]4[O-])cc2)CCN3C(=O)C(F)(F)F)cc1 (stereo not shown) [Compound 96, 7-[4-(2-butoxyethoxy)phenyl]-N-[4-[hydroxy(6-methyl-1-oxidopyridin-2-yl)methyl]phenyl]-1-trifluoroacetyl-2,3-dihydro-1H-1-benzazepine-4-carboxamide] | 170 to 173
9 | CCCCOCCOc1ccc(-c2ccc3c(c2)C=C(C(=O)Nc2ccc(C(O)c4cccc(C)[n+]4[O-])cc2)CCN3)cc1 (stereo not shown) [Compound 97, 7-[4-(2-butoxyethoxy)phenyl]-N-[4-[hydroxy(6-methyl-1-oxidopyridin-2-yl)methyl]phenyl]-2,3-dihydro-1H-1-benzazepine-4-carboxamide] | 175 to 177
10 | CCCCOCCOc1ccc(-c2ccc3c(c2)C=C(C(=O)Nc2ccc(C(O)c4cccc(C)[n+]4[O-])cc2)CCN3CC(C)C)cc1 (stereo not shown) [Compound 98, 7-[4-(2-butoxyethoxy)phenyl]-N-[4-[hydroxy(6-methyl-1-oxidopyridin-2-yl)methyl]phenyl]-1-isobutyl-2,3-dihydro-1H-1-benzazepine-4-carboxamide] | 114 to 116

Source: patent US7262185B2, “Benzazepine derivative, process for producing the same, and use” (Takeda Chemical Industries Ltd., priority 2001, dated 2007)
